# According to PMC6240096, “A hPSC-based platform to discover gene-environment interactions that impact human β-cell and dopamine neuron survival” (Nature Communications, 2018):
# Experiments:
# [1] = tested on: EndoC-βH1-Luc cells; test: Humanized NSG mice transplanted with EndoC-βH1-Luc cells; format: in vivo, human; conditions: 12 mg/kg
# Description: LentiLuc-blast plasmid was constructed based on the LentiCas9-blast vector (Addgene, 52926). The luciferase gene was driven by a constitutively active EFS promoter. EndoC-βH1 cells were infected with the lentivirus followed by 4 days selection with 20 μg/ml blasticidin to create EndoC-βH1-Luc cells. Adult 6–8 week old female NSG immunodeficient mice (Jackson Laboratory) were transplanted with 5 × 10^5 EndoC-βH1-Luc cells to create a humanized mouse model. Baseline luminescent levels were obtained 5 days after transplantation. 12 mg/kg propargite or vehicle were then administrated for 5 days via intraperitoneal injection (the starting day referred to as day 0). In vivo imaging was performed on day 1, 3, and 5 with an Xtreme Optical and X-ray small animal imaging system. During the imaging, isoflurane was used for anesthesia. 2 mg/150 µl/25 g body weight luciferin potassium salt (Regis, 360223) was applied to each mouse. To generate EndoC-βH1-Luc cells carrying sgGSTT1 or sgGFP, EndoC-βH1-Luc cells were infected with the lentivirus carrying Cas9 and sgRNAs (sgGSTT1 or sgGFP), and purified with 2 days selection using 1 μg/ml puromycin. Adult 6–8-week-old female NSG-immunodeficient mice (Jackson Laboratory) were transplanted with 5 × 10^5 EndoC-βH1-Luc cells carrying sgGSTT1 or sgGFP (control). 12 mg/kg propargite or vehicle were administrated for 3 days via intraperitoneal injection, mice were then sacrificed at day 3. The xenografts were embedded in OCT. The tissue was then sectioned at 5 μm to detect cell death with TUNEL assays (In Situ Cell Death Detection Kit, TMR red, Sigma, 12156792910) and for immunohistochemistry staining analysis of β-cell marker INS to measure cell death rate in EndoC-βH1-Luc cells carrying sgGSTT1 or sgGFP.
# [2] = tested on: MIN6 cells; test: Western blotting of γ-H2A.X and extracellular HMGB1 in MIN6 cells; format: cell-based, mouse; conditions: time course 1 to 30 h
# Description: To extract intracellular protein, cells were placed on ice, washed twice with ice-cold PBS and lysed immediately with RIPA buffer (Life Technologies, 89900) supplemented with a protease inhibitor cocktail (Life Technologies, 78440). Cell lysates were then sonicated and the soluble fraction was collected after centrifugation. Protein amount was quantified by the BCA protein assay (Life Technologies, 23227). To extract extracellular HMGB1, tissue culture media were collected and concentrated using Afyon SDS-PAGE sample preparation kit (advansta, K-02101-025). 20 μg of total protein for each sample was mixed with loading buffer and incubated for 5 min at 95 °C before being loaded into NuPAGE® Novex® 4–12% […] Protein Gels (Life Technologies, NP0321BOX) for electrophoresis. Separated proteins were transferred to a PVDF membrane (Millipore, IPSN07852) after electrophoresis. The membrane was blocked with 5% non-fat milk in TBST (50 mM Tris–HCl at pH 8.0, 150 mM NaCl, 0.1% Tween 20) followed by overnight incubation with the primary antibody at 4 °C. The following antibodies were used with the dilution ratio noted: rabbit anti-HMGB1 (1:1000, Cell Signaling Technology, #6893), rabbit anti-γ-H2A.X (1:1000, Cell Signaling Technology, #9718), rabbit anti-LC3B (1:1000, Cell Signaling Technology, #3868), mouse anti-GSTT1 (1:1000, GeneTex, GTX109250), rabbit anti-GSTM1 (1:1000, R&D system, MAB6894), mouse anti-GAPDH (1:50000, Abcam, ab8245). A peroxidase conjugated horse anti-mouse IgG secondary antibody (1:20000, Vector Laboratories, PI-2000) or peroxidase conjugated goat anti-Rabbit IgG secondary antibody (1:20000, Vector Laboratories, PI-1000) was used for western blot. ECL signals were developed and detected using the SuperSignal™ West Femto Maximum Sensitivity Substrate (Life Technologies, 34094) and a C-DiGit Chemiluminescent Western Blot Scanner (LI-COR). Uncropped scans of all the blots were shown in Supplementary Fig. 7 in the Supplementary Information.
# [3] = tested on: primary human islets; test: Primary human islets, INS and propidium iodide staining; format: cell-based; conditions: 4 days treatment
# Description: Fig. 1 A high-content screen identifies propargite as a compound that induces pancreatic β-cell death. a Scheme of pancreatic β-cell differentiation and high-content chemical screen. b Chemical structure of two hit compounds: Propargite and Vacor. c Inhibitory curve and IC50 of propargite or Vacor on INS^+ and INS^− cells (n = 8). d, e Immunocytochemistry analysis (d) and survival rate (e) of H1-derived glucose-responding INS^+ and INS^− cells treated with different doses of propargite (n = 8). Pancreatic β-like cells were stained for INS (green) and all cells were counterstained by DAPI (blue). Scale bars, 100 μm. The survival rate was calculated by dividing the average number of cells in propargite-treated conditions by the average number of cells in the DMSO control. f, g Representative live images (f) and fold-change (g) of INS^w/GFP HES3-derived INS-GFP^+ cells treated with 1.6 μM propargite or DMSO control at different time points compared to initial time 0 (n = 3). Scale bars, 100 μm. h, i, j Representative images (h) and cell survival rate (i) or cell death rate (j) of DMSO or propargite-treated human primary islets (n = 3). Pancreatic β-cells were stained with the INS antibody (green) and dead cells were stained with propidium iodide (PI) (red). Scale bars, 200 μm. Scale bars for higher resolution (Zoom) images, […]. Pancreatic β-cell death rate was calculated by defining percentages of INS^+ PI^+ cells in INS^+ cells, and non-β-cell death rate was calculated by percentages of INS^−PI^+ cells in INS^− cells.
substance,measurement,setting,value
2-(4-tert-butylphenoxy)-cyclohexyl prop-2-yne-1-sulfonate [propargite],cell death rate (TUNEL) of EndoC-βH1-Luc cells carrying sgGSTT1 vs sgGFP,[1]; day 3,higher cell death rate
same,luciferase signal of EndoC-βH1-Luc cells,[1]; day 3,slower rate increase
same,luciferase signal of EndoC-βH1-Luc cells,[1]; day 5,marked decrease
same,time after treatment at which γ-H2A.X was induced,[2],12 h
same,time after treatment of detection of extracellular HMGB1,[2],18 h
same,number of INS+ cells in primary human islets,[3],decreased
same,percentage of PI+/INS+ cells in INS+ cells,[3],increased percentage
